# Experimental data from PMC3914206.
# What was measured:
# Format in all cases: binding
# Details in all cases: Compound Concentration 10 µM
# panel of 442 kinases [1] = target: T1, panel of 442 kinases (Homo sapiens, UniProt P42679)
# T1 construct: purchased KINOMEscan
# T1 sequence (P42679 1-507): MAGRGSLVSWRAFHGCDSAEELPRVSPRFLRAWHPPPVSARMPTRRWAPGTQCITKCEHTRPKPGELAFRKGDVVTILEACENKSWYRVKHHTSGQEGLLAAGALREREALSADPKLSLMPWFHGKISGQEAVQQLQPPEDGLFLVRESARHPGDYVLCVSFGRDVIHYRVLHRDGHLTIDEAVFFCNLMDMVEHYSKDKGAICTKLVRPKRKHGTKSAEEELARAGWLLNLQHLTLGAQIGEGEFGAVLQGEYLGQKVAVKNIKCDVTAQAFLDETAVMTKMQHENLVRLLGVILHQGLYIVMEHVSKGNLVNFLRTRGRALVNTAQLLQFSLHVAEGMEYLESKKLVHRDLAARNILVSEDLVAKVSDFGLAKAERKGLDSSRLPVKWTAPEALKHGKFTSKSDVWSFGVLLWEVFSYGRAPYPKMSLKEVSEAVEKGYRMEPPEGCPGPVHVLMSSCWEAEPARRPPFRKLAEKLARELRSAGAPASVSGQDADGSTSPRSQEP
# From the text: (§1) We assessed the selectivity of members of this scaffold using the KINOMEscan methodology across a near comprehensive panel of 442 kinases [[18,27]].
# panel of 442 kinases [2] = target: T2, panel of 442 kinases (Homo sapiens, UniProt O96017)
# T2 construct: purchased KINOMEscan
# From the text: as §1
# panel of 442 kinases [3] = target: T3, panel of 442 kinases (Homo sapiens, UniProt O60674)
# T3 construct: purchased KINOMEscan
# From the text: as §1
# T3 sequence (O60674 whole entry): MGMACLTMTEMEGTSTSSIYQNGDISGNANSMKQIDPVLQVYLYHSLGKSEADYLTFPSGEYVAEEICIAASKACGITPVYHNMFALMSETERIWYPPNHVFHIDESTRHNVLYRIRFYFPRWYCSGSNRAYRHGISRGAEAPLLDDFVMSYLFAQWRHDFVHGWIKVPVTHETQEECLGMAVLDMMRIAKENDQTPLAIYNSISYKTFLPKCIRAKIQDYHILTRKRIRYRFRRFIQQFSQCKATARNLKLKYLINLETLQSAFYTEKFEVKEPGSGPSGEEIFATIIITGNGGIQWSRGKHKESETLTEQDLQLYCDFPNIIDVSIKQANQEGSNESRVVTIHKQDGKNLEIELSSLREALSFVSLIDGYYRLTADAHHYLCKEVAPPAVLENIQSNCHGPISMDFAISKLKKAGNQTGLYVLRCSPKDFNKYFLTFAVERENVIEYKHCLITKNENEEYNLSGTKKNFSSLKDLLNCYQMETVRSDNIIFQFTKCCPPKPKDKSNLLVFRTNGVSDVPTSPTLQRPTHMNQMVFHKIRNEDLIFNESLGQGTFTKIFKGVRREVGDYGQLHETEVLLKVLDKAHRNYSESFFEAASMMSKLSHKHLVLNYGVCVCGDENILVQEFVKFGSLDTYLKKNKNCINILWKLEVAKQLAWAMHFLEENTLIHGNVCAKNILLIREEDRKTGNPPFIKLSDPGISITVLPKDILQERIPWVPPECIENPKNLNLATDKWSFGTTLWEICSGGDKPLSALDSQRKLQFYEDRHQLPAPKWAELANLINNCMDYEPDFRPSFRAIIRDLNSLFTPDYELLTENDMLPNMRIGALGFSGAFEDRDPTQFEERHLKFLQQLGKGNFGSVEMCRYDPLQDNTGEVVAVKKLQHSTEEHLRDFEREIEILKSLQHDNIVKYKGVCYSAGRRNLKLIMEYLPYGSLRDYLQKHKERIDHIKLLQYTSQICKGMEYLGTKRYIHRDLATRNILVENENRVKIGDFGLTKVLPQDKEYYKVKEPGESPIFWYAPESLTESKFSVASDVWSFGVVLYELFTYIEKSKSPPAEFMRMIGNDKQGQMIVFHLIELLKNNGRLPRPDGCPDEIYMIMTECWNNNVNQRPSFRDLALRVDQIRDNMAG
# T2 sequence (O96017 whole entry): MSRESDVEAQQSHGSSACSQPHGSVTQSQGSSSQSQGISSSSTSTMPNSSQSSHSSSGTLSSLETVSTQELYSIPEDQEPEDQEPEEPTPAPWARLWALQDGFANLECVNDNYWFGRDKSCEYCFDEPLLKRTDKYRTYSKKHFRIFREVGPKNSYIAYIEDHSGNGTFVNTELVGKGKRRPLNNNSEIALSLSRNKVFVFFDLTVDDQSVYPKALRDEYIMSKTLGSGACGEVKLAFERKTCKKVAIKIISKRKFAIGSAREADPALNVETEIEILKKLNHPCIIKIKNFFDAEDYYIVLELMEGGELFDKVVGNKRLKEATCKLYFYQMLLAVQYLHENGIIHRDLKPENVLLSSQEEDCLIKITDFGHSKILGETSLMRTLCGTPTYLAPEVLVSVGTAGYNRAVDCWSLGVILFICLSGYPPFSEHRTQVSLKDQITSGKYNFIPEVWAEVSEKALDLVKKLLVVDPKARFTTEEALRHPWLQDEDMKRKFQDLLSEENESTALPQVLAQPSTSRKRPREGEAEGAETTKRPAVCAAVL
SMILES,KINOMEscan: CTK (panel of 442 kinases [1]),KINOMEscan: CHEK2 (panel of 442 kinases [2]),KINOMEscan: JAK2(JH1domain-catalytic) (panel of 442 kinases [3])
COc1cc(C(=O)N2CCC(N3CCN(C)CC3)CC2)ccc1Nc1ncc2c(n1)N(C)c1ccccc1C(=O)N2C [15 (LRRK2-IN-1)],100,66,70
CCOc1cc(C(=O)N2CCC(N3CCN(C)CC3)CC2)ccc1Nc1ncc2c(n1)N(C1CCCC1)c1ccccc1C(=O)N2C [Compound 26],89,100,100
"COc1cc(C(=O)N2CCC(N3CCN(C)CC3)CC2)ccc1Nc1ncc2c(n1)N(C1CCCC1)c1ccccc1C(=O)N2C [Compound 25, 11-cyclopentyl-2-((2-methoxy-4-(4-(4-methylpiperazin-1-yl)piperidine-1-carbonyl)phenyl)amino)-5-methyl-5H-benzo[e]pyrimido[5,4-b][1,4]diazepin-6(11H)-one]",100,100,95
